In brackets after ≈: the same amount, converted by molar mass. Entries after “also recorded” stand apart in the source; their conditions may differ.
Tests used:
L1210 tumor cells = test: L1210 Colorimetric Cytotoxicity Assay; assay type: cell-based; conditions: for IC50: Mus musculus, L1210, ID50 ≤250 μg/mL assessed as cytostatically active
Protocol: (§1) 4-Acetamino-N-(2'-aminophenyl) benzamide was used as an example of a compound according to the present invention and compared with […] as standard, the outstanding inhibition action of which against various experimental tumors in vitro and in vivo is known. The testing was carried out in vivo with SD-rats against MNU-induced mammary adenocarcinoma and acetoxymethylmethylnitrosamine-induced (AMMN-induced) colon adenocarcinoma. The testing was carried out in vitro in the "colorimetric-cytotoxicity assay" using L1210 and mammary adenocarcinoma 16C tumor cells. In this test system, substances with ID50 values of ≤250 μg/mL are assessed as being cytostatically active.

[1] = tested on: mammary adenocarcinoma 16C tumor cells; test: Mamma Adenocarcinoma 16C Cytotoxicity Assay; assay type: cell-based; conditions: ID50 ≤250 μg/mL assessed as cytostatically active
Protocol: as §1

[2] = Acute intragastral toxicity (LD50), 7-day observation; assay type: in vivo; conditions: male mice
[3] = Pharmacokinetic experiments on rats (plasma level, AUC, half-life, bioavailability); assay type: in vivo
Protocol: FIG. 1 is the AUC, rat, after administration of 4-acetamino-N-(2'-aminophenyl)benzamide. The * is intragastral administration (2 mg/kg; 10 mg/kg; 50 mg/kg). The * is intravenous administration (10 mg/kg).
In FIG. 2 the average plasma level of 4-amino-N-(2'-aminophenyl)-benzamide in rats after single administration of 10 mg/kg intragastrally (n=4).
The bioavailability of the active material according to the present invention is 100%. […] This is shown graphically in FIG. 1 of the accompanying drawings.

[4] = tested on: methylnitrosurea-induced (MNU-induced) mammary adenocarcinoma; test: MNU-induced mammary adenocarcinoma in SD rats; assay type: in vivo, female SD rats
Protocol: FIGS. 5 and 6 show the antineoplastic effect of compounds A, B, C at equimolar doses (33 μmol/kg/day); is control; Δ is compound C (8.0 mg/kg), .smallcircle. is compound B (7.5 mg/kg), and .quadrature. is compound A (8.9 mg/kg).
as §1
The in vivo activity of 4-acetamino-N-(2'-aminophenyl)-benzamide was tested against primary mammary adenocarcinoma induced by 3 single IV administrations of methylnitrosurea on Days 50, 71, and 92 following birth in female SD rats. As soon as tumor volumes ≥0.8 cm^3 were reached, test animals were randomized and therapy was started. […] Median tumor volumes and numbers were determined weekly and compared with untreated controls.

[5] = tested on: acetoxymethylmethylnitrosamine-induced (AMMN-induced) colon adenocarcinoma; test: AMMN-induced colon adenocarcinoma in SD rats; assay type: in vivo, Male SD-rats; conditions: for antineoplastic effect (in words): 10-week treatment, 5 days per week
Protocol: as §1
The activity of the compounds A, B, and C was tested in vivo against AMMN-induced colon adenocarcinoma. Male SD-rats were given 2 mg/kg/week acetoxymethylmethylnitrosamine (AMMN) intrarectally for a period of 10 weeks for tumor induction. Animals with manifest tumors were assigned randomly to the test groups.
^a Application via gastric tube, 5 days per week
The animals were examined twice daily. After the 10-week treatment period, the animals were sacrificed and a total necropsy performed. All tumors were individually measured and their volumes added to a total tumor volume.

Question: Which IC50 (L1210 tumor cells) does the source give for `CNc1ccc(C(=O)Nc2ccccc2N)cc1` [Compound C, 4-Methylamino-N-(2'-aminophenyl)-benzamide, reference compound] here?
Answer: Its IC50 is 4.04 µg/mL (≈ 16.7 µM).

Question: For `Nc1ccccc1NC(=O)c1ccc(NC=O)cc1` [4-Formylamino-N-(2'-aminophenyl)-benzamide], which IC50 [1] is on record?
Answer: Its IC50 is 0.4 µg/mL (≈ 1.57 µM).

Question: Which IC50 [1] does the source give for `Nc1ccccc1NC(=O)c1ccc(NC(=O)CO)cc1` [4-Glycoloylamino-N-(2'-aminophenyl)-benzamide] here?
Answer: The IC50 was 0.62 µg/mL (≈ 2.17 µM).

Question: Which IC50 [1] does the source give for `CC(C)C(=O)Nc1ccc(C(=O)Nc2ccccc2N)cc1` [4-isobutyrylamino-N-(2'-aminophenyl)-benzamide] here?
Answer: Its IC50 is 0.32 µg/mL (≈ 1.08 µM).

Question: For `CC(=O)Nc1ccc(C(=O)Nc2ccccc2N)cc1` [Compound A, 4-Acetamino-N-(2'-aminophenyl)-benzamide], which IC50 (L1210 tumor cells) is on record?
Answer: The IC50 was 3.75 µg/mL (≈ 13.9 µM).

Question: And the “cytostatic activity (in words)” value (L1210 tumor cells; Table 1: L1210 and mammary adenocarcinoma 16C, versus comparison standard)?
Answer: The value was “acts outstandingly cytostatically; also recorded: about the same or better as that of the comparison standard”.

Question: What about the IC50 [1] of the same molecule?
Answer: The IC50 was 0.73 µg/mL (≈ 2.71 µM).

Question: And the “acute toxicity versus comparison standard (in words)” value ([2]; acute intragastral administration)?
Answer: Its value is “considerably less toxic”.

Question: And the LD50 at 168 h ([2]; mouse, in vivo, po, acute intragastral, n=4, 7-day observation)?
Answer: The LD50 at 168 h was 1600 mg/kg.

Question: What about the half-life ([3]; rat, in vivo) of the same molecule?
Answer: Its half-life is 4.2 to 4.5 h.

Question: What about the “half-life time versus standard (in words)” value ([3]; rat, in vivo) of the same molecule?
Answer: Its value is “longer half-life time”.

Question: And the bioavailability ([3]; rat, in vivo, po, 10 mg/kg)?
Answer: Its bioavailability is 100%.

Question: And the “intestinal resorption (in words)” value ([3]; rats)?
Answer: Its value is “quickly, completely, and dosage-linearly”.

Question: And the “antineoplastic effect at equimolar doses (in words)” value ([4]; 33 μmol/kg/day, A 8.9, B 7.5, C 8.0 mg/kg)?
Answer: The value was “shows the highest antineoplastic effect”.

Question: What about the “tumor growth, dose dependence and inhibition (in words)” value ([4]; FIG. 4, 7.5, 10, 12.5 mg/kg intragastrally, 5 times/week for 5 weeks) of the same molecule?
Answer: The value was “affects tumor growth in a dose-dependent manner with almost complete tumor growth inhibition in the highest dose group”.

Question: And the “tumor growth (in words)” value ([5]; 7.0 mg/kg/day)?
Answer: Its value is “completely inhibited further growth of colon carcinoma”.

Question: And the T/C ([5]; 7.0 mg/kg/day, gastric tube, 10 weeks)?
Answer: The T/C was 11.1%.

Question: What about the “tumor growth inhibition (in words)” value ([5]; 11.9 mg/kg) of the same molecule?
Answer: The value was “the growth inhibition is much less”.

Question: What about the T/C ([5]; 11.9 mg/kg, gastric tube, 10 weeks) of the same molecule?
Answer: The T/C was “about 5%”.

Question: What about the “antineoplastic effect (in words)” value ([5]; gastric tube) of the same molecule?
Answer: Its value is “very efficient”.

Question: Which results are given for `Nc1ccc(C(=O)Nc2ccccc2N)cc1` [Compound B, 4-Amino-N-(2'-aminophenyl)-benzamide, reference compound]?
Answer: IC50 (L1210 tumor cells): 2.78 µg/mL (≈ 12.2 µM); IC50 [1]: 0.69 µg/mL (≈ 3.04 µM); half-life ([3]; rat, in vivo, po, 10 mg/kg): ~0.25 h; tumor growth (in words) ([5]; 5.9 mg/kg/day): arrest of tumor growth; relative median tumor volume T/C ([5]; 5.9 mg/kg/day=26 μmol/kg/day, gastric tube, 10 weeks): 10.6%; antineoplastic effect (in words) ([5]; gastric tube): very efficient

Question: With `Nc1ccccc1NC(=O)c1ccc(NC(=O)CCO)cc1` [4-(β-hydroxypropionylamino)-N-(2'-aminophenyl)-benzamide] as the molecule, how does the IC50 [1] read?
Answer: Its IC50 is 0.77 µg/mL (≈ 2.57 µM).
